Reference: patent publication US20180333415A1, “THERAPEUTIC METHODS” (REGENTS OF THE UNIVERSITY OF MINNESOTA, priority 2017, published 2018)

Legend:
CYP3A4 = CYP3A4 (Homo sapiens, UniProt P08684); experiment: Inhibition of CYP3A4 supersome-mediated EET biosynthesis; format: biochemical; details: CYP3A4 supersomes, read-out: IC50 for inhibition of EET synthesis
Method: (§1) Poziotinib was purchased from a commercial source (Selleck Chem catalog number S7358). Assays were conducted using standard techniques that are known in the literature including those described in US Patent Publication U.S. 2015/0342909.
(§2) Poziotinib was tested for inhibition of proliferation of the MCF-7 (HER2 negative) cell line in complete media. The IC50 for inhibition of growth was determined to be approximately 3 μM (FIG. 1). Poziotinib was tested for inhibition of CYP2C8 supersome-mediated EET biosynthesis. The IC50 for inhibition of EET synthesis was determined to be approximately 10 μM (FIG. 2). Poziotinib was tested for inhibition of CYP3A4 supersome-mediated EET biosynthesis. The IC50 for inhibition of EET synthesis was determined to be approximately 10 µM (FIG. 2).

[1] = test system: MCF-7 (HER2 negative) cell line; experiment: Inhibition of proliferation of MCF-7 cell line in complete media; format: cell-based; details: Homo sapiens, MCF7, FIG. 1, read-out: IC50 for inhibition of growth
Method: as §1, §2

CYP2C8 = target: T1, CYP2C8 (Homo sapiens, UniProt P10632); experiment: Inhibition of CYP2C8 supersome-mediated EET biosynthesis; format: biochemical; details: FIG. 2, read-out: IC50 for inhibition of EET synthesis
T1 sequence (P10632 1-490): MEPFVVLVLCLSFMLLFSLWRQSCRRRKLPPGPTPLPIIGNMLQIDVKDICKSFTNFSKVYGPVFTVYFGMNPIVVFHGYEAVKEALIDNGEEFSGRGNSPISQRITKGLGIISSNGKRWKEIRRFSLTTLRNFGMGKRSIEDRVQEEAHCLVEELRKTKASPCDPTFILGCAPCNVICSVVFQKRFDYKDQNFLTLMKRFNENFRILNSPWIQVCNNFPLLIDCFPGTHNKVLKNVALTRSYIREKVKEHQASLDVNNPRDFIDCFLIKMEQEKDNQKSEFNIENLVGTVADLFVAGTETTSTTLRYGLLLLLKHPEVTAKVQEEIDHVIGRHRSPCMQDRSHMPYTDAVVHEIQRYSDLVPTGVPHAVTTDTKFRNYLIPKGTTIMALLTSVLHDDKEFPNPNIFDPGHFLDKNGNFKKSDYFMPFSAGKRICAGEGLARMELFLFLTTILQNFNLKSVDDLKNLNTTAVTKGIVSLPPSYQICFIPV
Method: as §1, §2

EGFR type I kinase = EGFR type I kinase (Homo sapiens, UniProt P00533); details: as described in WO2008/150118; cited from earlier work
MCF7 = experiment: Measurement of OCR and ECAR (XF Extracellular Flux Analyzer); format: cell-based; details: MCF7, poziotinib 40 and 80 uM, endpoint A+270 minutes; P=0.0286 (40 uM), P=0.0001 (80 uM); normalized to 6th measurement DMSO control, n=5, FIG. 4
Method: Cells were maintained in growth medium consisting of 10% FBS at 37° C. with 5% CO2 and seeded at 30,000 cells per well in XF24-well cell culture microplates (Seahorse Bioscience, North Billirica, Ma.). Concentrated stocks of poziotinib were prepared in DMSO. Poziotinib was diluted to 10× working concentration in XF assay medium (a non-buffered medium including 2 mM L-glutamine but no sodium bicarbonate (buffering agent), glucose, or sodium pyruvate). Assays were performed in the XF Extracellular Flux Analyzer (Seahorse Bioscience), which measures uptake and excretion of metabolic end products in real time. Oxygen consumption rate (OCR) and extracellular acidification rate (ECAR) were measured using an XF Assay Kit. OCR is reported in pmoles/minute and ECAR in mpH/minute. Before analysis, the cells were switched from culture medium to XF assay medium. After baseline measurements, 75 μl of poziotinib prepared in assay medium was injected into each well to reach final working concentrations. After addition of poziotinib, OCR and ECAR were measured at 18-minute intervals. There were 5 replicates performed for each data point.
OCR was reduced by poziotinib vs. DMSO and was significant at the endpoint of A+270 minutes. […] Results are normalized to the 6th measurement DMSO control and expressed as mean ±S.D. (n=5) (FIG. 4).

[2] = test system: various cancer cell lines including colon/rectal, skin, lung and the breast cancer cell line SK-BR3; details: lung and SK-BR3 (overexpresses HER2) cell lines, WO2008/150118; cited from earlier work

CYP3A4, sequence (P08684 whole entry): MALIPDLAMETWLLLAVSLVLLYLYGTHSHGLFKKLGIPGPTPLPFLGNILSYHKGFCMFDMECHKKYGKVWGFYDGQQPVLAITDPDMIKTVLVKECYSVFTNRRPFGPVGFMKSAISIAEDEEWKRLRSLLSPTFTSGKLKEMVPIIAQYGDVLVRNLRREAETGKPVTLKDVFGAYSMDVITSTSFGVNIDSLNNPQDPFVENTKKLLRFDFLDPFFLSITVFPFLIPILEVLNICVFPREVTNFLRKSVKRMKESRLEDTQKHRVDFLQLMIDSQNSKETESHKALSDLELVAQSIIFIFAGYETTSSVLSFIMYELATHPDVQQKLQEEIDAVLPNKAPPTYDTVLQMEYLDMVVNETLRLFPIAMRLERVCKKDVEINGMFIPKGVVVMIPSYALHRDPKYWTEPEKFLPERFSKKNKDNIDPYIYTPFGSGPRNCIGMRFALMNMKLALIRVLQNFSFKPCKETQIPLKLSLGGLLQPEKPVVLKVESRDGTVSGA
EGFR type I kinase, sequence (P00533 25-1210): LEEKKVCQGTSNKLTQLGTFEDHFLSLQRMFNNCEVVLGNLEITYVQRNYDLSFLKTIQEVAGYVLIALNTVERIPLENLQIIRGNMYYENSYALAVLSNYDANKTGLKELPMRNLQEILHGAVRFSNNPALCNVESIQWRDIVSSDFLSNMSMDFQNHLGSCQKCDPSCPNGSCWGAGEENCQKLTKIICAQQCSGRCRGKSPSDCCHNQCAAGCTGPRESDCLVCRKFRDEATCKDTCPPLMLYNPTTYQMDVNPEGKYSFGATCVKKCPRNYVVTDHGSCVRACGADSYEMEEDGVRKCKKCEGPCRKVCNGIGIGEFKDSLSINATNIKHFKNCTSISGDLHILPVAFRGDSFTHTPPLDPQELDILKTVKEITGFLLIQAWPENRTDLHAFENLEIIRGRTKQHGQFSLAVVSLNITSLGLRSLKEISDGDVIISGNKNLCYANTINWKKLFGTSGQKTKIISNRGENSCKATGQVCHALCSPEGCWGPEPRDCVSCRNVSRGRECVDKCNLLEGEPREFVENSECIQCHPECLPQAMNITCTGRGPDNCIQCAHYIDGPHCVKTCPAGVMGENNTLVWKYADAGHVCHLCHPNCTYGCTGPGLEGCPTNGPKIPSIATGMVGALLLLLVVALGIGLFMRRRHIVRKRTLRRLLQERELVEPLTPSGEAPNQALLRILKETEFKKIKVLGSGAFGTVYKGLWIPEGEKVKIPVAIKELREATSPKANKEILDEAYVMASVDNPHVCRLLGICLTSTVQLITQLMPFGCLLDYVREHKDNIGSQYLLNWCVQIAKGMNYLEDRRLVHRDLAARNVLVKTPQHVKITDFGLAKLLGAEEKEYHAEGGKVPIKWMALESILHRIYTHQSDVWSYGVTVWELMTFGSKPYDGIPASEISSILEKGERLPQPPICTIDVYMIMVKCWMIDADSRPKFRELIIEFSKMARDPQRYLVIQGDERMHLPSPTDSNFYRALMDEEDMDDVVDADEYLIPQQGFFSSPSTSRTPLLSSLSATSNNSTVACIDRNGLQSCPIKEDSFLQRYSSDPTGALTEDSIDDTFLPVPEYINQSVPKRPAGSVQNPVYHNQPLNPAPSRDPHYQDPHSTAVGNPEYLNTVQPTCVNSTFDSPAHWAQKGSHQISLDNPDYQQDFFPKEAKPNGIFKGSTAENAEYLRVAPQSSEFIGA

C=CC(=O)N1CCC(Oc2cc3c(Nc4ccc(Cl)c(Cl)c4F)ncnc3cc2OC)CC1 [Poziotinib, 1-(4-((4-((3,4-dichloro-2-fluorophenyl)amino)-7-methoxyquinazolin-6-yl)oxy)piperidin-1-yl)prop-2-en-1-one]
IC50 (CYP3A4): ~10 µM
IC50 [1]: ~3 µM
IC50 (CYP2C8): ~10 µM
Inhibition of EGFR type I kinase (EGFR type I kinase): inhibit EGFR type I kinase
Oxygen consumption rate (OCR) vs. DMSO (MCF7): reduced
Inhibition of cell growth [2]: inhibit cell growth
